Results reported in publication PMC6503114, “Application of Antimicrobial Peptides of the Innate Immune System in Combination With Conventional Antibiotics—A Novel Way to Combat Antibiotic Resistance?” (Frontiers in Cellular and Infection Microbiology, 2019).
Where a SMILES comes first, the peptide text is derived from it. Bridges are numbered along the chain shown (N, C = ends).

Key:
Human PBMC = test: MTT-test
Description: To obtain neutrophils and mononuclear cells, whole heparinized blood was diluted with sterile PBS in a 1:1 ratio and carefully inserted into the sterile polystyrene 50 ml tube upon the 5 ml of the sterile Ficoll-400 (Pharmacia, Sweden) with a density of 1.077. The tube was centrifuged at 600 g and 4°C for 40 min. After separation, the mononuclear “ring” located between the blood plasma and Ficoll was collected with a Pasteur pipette, transferred to another tube, and washed twice with 10 ml of sterile PBS by centrifugation for 10 min at 300 g and 4°C.
(§1) We calculated Fractional Effective Concentration Index (FECI), which could be seen as a particular case of the interaction index (I) proposed by Berenbaum ([1977]) or of the similar combination index (CI) proposed by Chou and Talalay ([1983]), according to the equation below: […]
(§2) Here, [MEC A] and [MEC B] are the minimum effective concentrations (MEC) of substances A and B, when they are used alone. […] [A] and [B] are respective concentrations of substances A and B in their combination, where the same statistically significant difference is detected. A non-parametric Mann-Whitney U-test (p < 0.05 or p < 0.01) was used for the mentioned statistical comparison.
(§3) We have chosen the same intervals as that of FICI to determine synergy, additivity, independent action, and antagonism based on the minimal FECI values. However, in case of cytotoxic or hemolytic effect we were interested mainly in testing the possibility of additive or synergistic interaction itself, and not in assessing the exact magnitude of such interaction. Thus, in contrast to the “checkerboard titration” method used for combined antimicrobial activity investigation, studying the combined cytotoxic effect, we considered only two combinations of concentrations for the substances A and B in the mixture: • (½ MEC A + ½ MEC B), which, if found effective, provides the FECI value of 1 (the threshold value for additivity); • (¼ MEC A + ¼ MEC B), which, if found effective, provides the FECI value of 0.5 (the threshold value for synergetic interaction).
(§4) When action on tumor cells was tested in combination with antitumor antibiotic the lower concentrations up to ( 1/16 MEC A + 1/16 MEC B) as in checkerboard titration were additionally examined to assess the magnitude of synergistic effect more precisely. The final conclusion was made based on the three independent experiments.
(§5) Standard MTT-test (Mosmann, [1983]) was used for the examination of the cytotoxic activity of antimicrobial compounds and their combinations toward varied eukaryotic cells. Briefly, cell suspensions in RPMI-1640 prepared as described in Eukaryotic Cells were dispensed into the 96-well microplates (2 × 10^5 cells/well). Then, serial dilutions of AMPs, or other antibiotic compounds, or their mixtures in RPMI-1640 were added. In positive controls (100% cell survival) the according volume of RPMI-1640 without test substances was added instead. The final volume in each well was 100 μl. Negative controls (0% cell survival) were made with 100 μl of the sterile RPMI-1640. The plates were incubated at 37°C under 5% CO2 for 24 h. Four hours before the end of incubation, 10 μl of metabolic marker MTT−3-(4,5-dimethylthiazol-2-yl)-2,5-diphenyltetrazolium bromide (5 mg/ml, diluted in PBS) was added to each well. Incubation was stopped by adding 90 μl of isopropanol containing 0.04 M HCl. Content of the wells was thoroughly mixed, so that the formazan crystals, formed in case of the reduction of MTT in presence of actively metabolizing cells, were fully dissolved. The optical density of the samples was evaluated at 540 nm, subtracting the background absorbance at 690 nm, by SpectraMax 250 Spectrophotometer (Molecular Devices, USA). The experiments were repeated at least three times. In each experiment test samples were made in triplicates and control samples were made in hexaplicates.

Murine EAC = test: MTT-test; format: cell-based, mice; conditions: Murine EAC tumor cells, 24 h
Description: (§6) Before the cells extraction, mice were sacrificed by cervical dislocation in accordance with the supplement to the Directive 86/609/EEC and its update Directive 2010/63/EU addressing the recommendations for euthanasia of experimental animals (Close et al., [1996]). To obtain peritoneal macrophages, healthy mice were used. The abdominal cavity of each animal was washed with 3 ml of sterile PBS using a Pasteur pipette. The culture of EAC cells was kindly provided by Dr. E.P. Kiseleva (Immunology Department of the Institute of Experimental Medicine, Saint Petersburg, Russia). On the tenth day after the intraperitoneal tumor inoculation, 0.5–1.5 ml of ascitic fluid containing EAC cells was obtained from the abdominal cavity of the animals. Murine cells (normal or tumor) were washed twice with 10 ml of sterile PBS and resuspended in RPMI-1640 medium as described above for human neutrophils and PBMC.
as §1, §2, §3, §4
as §5, with “dissolved.” for “dissolved. The optical density of the samples was evaluated at 540 nm, subtracting the background absorbance at 690 nm, by SpectraMax 250 Spectrophotometer (Molecular Devices, USA). The experiments were repeated at least three times. In each experiment test samples were made in triplicates and control samples were made in hexaplicates.”

[1] = test system: doxorubicin-resistant K562 tumor cells; conditions: for MEC: doxorubicin-resistant K562 cell line; for enhancement in MEC values comparing susceptible and resistant cell lines: doxorubicin-resistant vs susceptible K562
Description: (§7) The human erythromyeloid leukemia cell line K562 was obtained from the collection of the Institute of Cytology RAS (Saint Petersburg, Russia) and cultured in RPMI-1640 medium containing gentamicin (100 μg/ml) and 10% of fetal bovine serum at 37°C, 5% CO2. […] Drug resistance was maintained by monthly selection with the antibiotic (2 μg/ml in the culturing medium). Doxorubicin was removed from the medium 3 days prior to beginning any experiments. Before the testing K562 cells were washed twice with PBS and resuspended in RPMI-1640 in the same way as the other cell types.
as §1, §2, §3, §4
as §5, with “dissolved.” for “dissolved. The optical density of the samples was evaluated at 540 nm, subtracting the background absorbance at 690 nm, by SpectraMax 250 Spectrophotometer (Molecular Devices, USA). The experiments were repeated at least three times. In each experiment test samples were made in triplicates and control samples were made in hexaplicates.”

K562 = test system: K562
Description: as §7, §1, §2, §3, §4
as §5, with “dissolved.” for “dissolved. The optical density of the samples was evaluated at 540 nm, subtracting the background absorbance at 690 nm, by SpectraMax 250 Spectrophotometer (Molecular Devices, USA). The experiments were repeated at least three times. In each experiment test samples were made in triplicates and control samples were made in hexaplicates.”

Human neutrophils = test system: Human neutrophils
Description: The pellet formed under the Ficoll-400 layer after separation contained both neutrophils and erythrocytes. It was also transferred into a separate tube, where the red blood cells were lysed with 0.83% ammonium chloride solution, which was added in a ratio of 1:4. After the thorough mixing, the suspension was incubated for 10 min at room temperature, and then centrifuged for 10 min at 300 g and 4°C. The resulting precipitate containing neutrophils was washed twice with the sterile PBS.
as §1, §2, §3, §4, §5

[2] = test system: Murine peritoneal macrophages; test: MTT-test
Description: as §6, §1, §2, §3, §4
as §5, with “dissolved.” for “dissolved. The optical density of the samples was evaluated at 540 nm, subtracting the background absorbance at 690 nm, by SpectraMax 250 Spectrophotometer (Molecular Devices, USA). The experiments were repeated at least three times. In each experiment test samples were made in triplicates and control samples were made in hexaplicates.”

E. coli ML-35p = test: microbe, parasite or virus in culture; format: cell-based, Escherichia coli; conditions: median of 3–6 experiments, value in square brackets = twice the maximal tested concentration
Description: Prior to the “checkerboard” synergy test the minimal inhibitory concentrations (MIC) of individual substances were determined using broth microdilution assay. Testing was performed in 60-well polystyrene Terasaki microplates with V-shaped bottom generally according to the guidelines of the European Committee for Antimicrobial Susceptibility Testing with subtle modifications designed for AMP testing (Tossi et al., [1997]; Wiegand et al., [2008]). Cultivation of bacteria was carried out in 2.1% Müller-Hinton broth at 37°C with shaking. Two-fold serial dilutions of peptides, antibiotics and other antimicrobials were made with 10 mM sodium phosphate buffer, pH 7.4, containing 0.1% of BSA. The plates were preliminary incubated with 0.1% BSA for 1 h at 37°C to reduce a non-specific binding of peptides to the plates. After that BSA was removed, and serial dilutions were added into the plate wells in triplicates followed by the same volume of the suspension of bacterial cells in logarithmic phase of growth in concentration of 1 × 10^6 CFU/ml. After the 18 h overnight incubation at 37°C, the MIC value for each compound was determined as its lowest concentration completely inhibiting the visible growth of bacteria. The final results were calculated as median values based on 3–6 independent experiments.

SMILES | MEC of cytotoxic action (Human PBMC) | MEC of cytotoxic action (Murine EAC) | minimal FECI (combined cytotoxic action) [1] | MEC [1] | enhancement in MEC values comparing susceptible and resistant cell lines [1] | minimal FECI (combined cytotoxic action) (K562) | MEC of cytotoxic action (K562; K562 tumor cells (doxorubicin-sensitive), MTT, 24 h) | MEC of cytotoxic action (Human neutrophils) | MEC of cytotoxic action [2] | MIC (E. coli ML-35p) | MEC (K562; susceptible K562 cell line)
CC(C)C[C@H](NC(=O)[C@H](CCCNC(=N)N)NC(=O)CNC(=O)CNC(=O)[C@@H](N)CCCNC(=N)N)C(=O)N[C@H]1CSSC[C@@H](C(=O)N[C@H](C(=O)NCC(=O)N[C@@H](CCCNC(=N)N)C(N)=O)C(C)C)NC(=O)[C@H](C(C)C)NC(=O)[C@@H]2CSSC[C@H](NC(=O)[C@H](Cc3ccc(O)cc3)NC1=O)C(=O)N[C@@H](CCCNC(=N)N)C(=O)N[C@@H](CCCNC(=N)N)C(=O)N[C@@H](CCCNC(=N)N)C(=O)N[C@@H](Cc1ccccc1)C(=O)N2 [PG-1, protegrin 1] | 5.0 µM | 1.25 µM | 0.38 | 5.0 µM | 4 times | 0.25 | 1.25 µM | 2.5 µM | 2.5 µM |  | 
CC[C@H](C)[C@@H]1NC(=O)[C@H](CC(C)C)NC(=O)[C@@H]2CSSC[C@@H]3NC(=O)[C@H](CO)NC(=O)[C@@H](NC(=O)[C@@H](N)C(C)C)CSSC[C@@H](C(=O)N[C@H](C(=O)N[C@@H](CCCNC(=N)N)C(=O)N[C@H](C(=O)O)C(C)C)[C@@H](C)O)NC(=O)[C@H](CSSC[C@H](NC(=O)[C@H](Cc4ccccc4)NC(=O)[C@H](C(C)C)NC(=O)[C@H](CC(C)C)NC(=O)[C@H](CCCNC(=N)N)NC3=O)C(=O)N[C@@H](CCCNC(=N)N)C(=O)N[C@@H](CCCNC(=N)N)C(=O)N[C@@H]([C@@H](C)O)C(=O)N[C@@H](CCC(=O)O)C(=O)N[C@@H](CC(C)C)C(=O)N[C@@H](CCCNC(=N)N)C(=O)N[C@@H](C(C)C)C(=O)NCC(=O)N[C@@H](CC(N)=O)C(=O)N2)NC(=O)[C@H](Cc2ccc(O)cc2)NC(=O)[C@H]([C@@H](C)O)NC(=O)[C@H](Cc2ccccc2)NC(=O)[C@H](CO)NC(=O)[C@H](C(C)C)NC(=O)CNC(=O)CNC1=O [HNP-4] (H-VCSCRLVFCRRTELRVGNCLIGGVSFTYCCTRV-OH; disulfide 2-30, 4-19, 9-29 (inferred); N-terminus and C-terminus assumed) |  |  |  |  |  |  |  |  |  | >100 [200] μM | 
COc1cccc2c1C(=O)c1c(O)c3c(c(O)c1C2=O)C[C@@](O)(C(=O)CO)C[C@@H]3O[C@H]1C[C@H](N)[C@H](O)[C@H](C)O1 [doxorubicin] |  |  |  | 100 µg/mL | 100 times |  |  |  |  |  | 1 µg/mL
